We go through 32 compounds from patent US9376425B2, “Heterocyclic compounds as MDM2 inhibitors for the treatment of cancer” (AMGEN INC., priority 2011, dated 2016).

The structures appear in SMILES notation.

The target in the assay is T1, human MDM2 (GST-hMDM2 aa 1-188), interaction with biotinylated-p53 (aa 1-83) (Homo sapiens, UniProt Q00987).
T1 construct: Amino acid residues 1-188 of human MDM2 were expressed; made in house; host or cells: Escherichia coli
T1 sequence (Q00987 1-188): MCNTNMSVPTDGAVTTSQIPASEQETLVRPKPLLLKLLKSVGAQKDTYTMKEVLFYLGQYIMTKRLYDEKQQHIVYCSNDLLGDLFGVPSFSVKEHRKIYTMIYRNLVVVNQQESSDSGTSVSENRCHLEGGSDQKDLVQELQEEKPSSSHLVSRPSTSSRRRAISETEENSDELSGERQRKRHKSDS
As to the kind of experiment: Homogenous Time-Resolved Fluorescence Assay (HTRF1 assay), inhibition of HDM2-p53 interaction. It is filed as binding. The conditions noted are these: 2.5 nM GST-hMDM2, 5 nM biotinylated-p53, 200 mM KF. On the procedure: Homogenous Time-Resolved Fluorescence Assay (HTRF1 Assay)
Residues 1-83 of human p53 were expressed as an amino-terminal AviTag™-TrxA-6xHis fusion protein (biotinylated p53) in E. coli. Each protein was purified from cell paste by affinity chromatography.
Specifically, 10 uL of GST-hMDM2 was incubated with 10 ul of diluted compound (various concentrations, serially diluted) in 10% DMSO for 20 minutes at room temperature. 20 uL of biotinylated-p53 was added to the GST-hMDM2+ compound mixture, and then incubated at room temperature for 60 min. 10 uL of detection buffer consisting of SA-XLent, anti-GST cryptate antibody and KF was added to GST-hMDM2, biotinylated-p53 and compound reaction and left at room temperature to reach equilibrium for >4 hrs. The final concentration of DMSO in the reaction was 2%. Time-resolved fluorescence readings were measured on a microplate multilabel reader. Percentage of inhibition was calculated relative to nutlin-3.
As to `O=C(O)C[C@H]1O[C@H](c2cccc(Cl)c2)[C@@H](c2ccc(F)cc2)N(CC2CC2)C1=O` [Example 64, 2-((2R,5R,6R)-6-(3-Chlorophenyl)-4-(cyclopropylmethyl)-5-(4-fluorophenyl)-3-oxomorpholin-2-yl)acetic acid], the IC50 (as a rule, the concentration needed to halve the response being measured) is 1.5 µM.
Consider `O=C(O)CC1O[C@H](c2ccc(F)c(Cl)c2)[C@@H](c2ccc(Cl)cc2)N(CC2CC2)C1=O` (single isomer, unassigned) [Example 94], for which inhibition was half-maximal at 0.6 µM (IC50).
For `O=C(O)C[C@H]1O[C@H](c2cc(Cl)cc(-c3cncnc3)c2)[C@@H](c2ccc(Cl)cc2)N(CC2CC2)C1=O` (single isomer, unassigned) [Example 108], half-maximal inhibition (IC50) required 4.3 µM.
As for `Cc1ccc([C@@H]2[C@@H](c3cccc(Cl)c3)O[C@H](CC(=O)O)C(=O)N2CC2CC2)cc1` [Example 61, 2-((2R,5R,6R)-6-(3-Chlorophenyl)-4-(cyclopropylmethyl)-3-oxo-5-(p-tolyl)morpholin-2-yl)acetic acid], the figure is 0.6 µM; as for `CCC(CC)N1C(=O)[C@H](CC(=O)O)O[C@H](c2cccc(Cl)c2)[C@H]1c1ccc(Cl)cc1` [Example 53, 2-((2S,5R,6R)-6-(3-Chlorophenyl)-5-(4-chlorophenyl)-3-oxo-4-(pentan-3-yl)morpholin-2-yl)acetic acid], 0.1 µM; as for `O=C(O)CC1O[C@H](c2cc(Cl)ccc2F)[C@@H](c2ccc(Cl)cc2)N(CC2CC2)C1=O` (single isomer, unassigned) [Example 101], 0.6 µM.
As for `O=C(O)CC1O[C@H](c2cc(F)cc(F)c2)[C@@H](c2ccc(Cl)cc2)N(CC2CC2)C1=O` (single isomer, unassigned) [Example 97], the figure is 0.5 µM; as for `O=C(O)C[C@H]1O[C@H](c2cc(Cl)cc(-c3cn[nH]c3)c2)[C@@H](c2ccc(Cl)cc2)N(CC2CC2)C1=O` (single isomer, unassigned) [Example 106], 5.2 µM.
With `C[C@@H](c1ccccc1)N1C(=O)[C@H](CC(=O)O)O[C@H](c2cccc(Cl)c2)[C@H]1c1ccc(Cl)cc1` [Example 27, 2-((2S,5R,6R)-6-(3-Chlorophenyl)-5-(4-chlorophenyl)-3-oxo-4-((S)-1-phenylethyl)morpholin-2-yl)acetic acid], half-maximal inhibition (IC50) required 0.6 µM.
As for `Cn1c([C@@H]2[C@@H](c3cccc(Cl)c3)O[C@@H](CC(=O)O)C(=O)N2CC2CC2)nc2ccccc21` (racemic) [Example 5, 2-((2S,5R,6R)-6-(3-Chlorophenyl)-4-(cyclopropylmethyl)-5-(1-methyl-1H-benzo[d]imidazol-2-yl)-3-oxomorpholin-2-yl)acetic acid and 2-((2R,5S,6S)-6-(3-Chlorophenyl)-4-(cyclopropylmethyl)-5-(1-methyl-1H-benzo[d]imidazol-2-yl)-3-oxomorpholin-2-yl)acetic acid], the figure is 39.5 µM; as for `COc1cncc([C@H]2OC(CC(=O)O)C(=O)N(CC3CC3)[C@@H]2c2ccc(Cl)cc2)c1` (single isomer, unassigned) [Example 92], 19.5 µM; as for `O=C(O)C[C@H]1O[C@H](c2cccc(Cl)c2)[C@@H](c2ccc(Cl)cc2)N(CC2CCCC2)C1=O` [Example 28, 2-((2R,5R,6R)-6-(3-Chlorophenyl)-5-(4-chlorophenyl)-4-(cyclopentylmethyl)-3-oxomorpholin-2-yl)acetic acid], 0.5 µM.
Compound `C[C@H](C1CCCCC1)N1C(=O)[C@H](CC(=O)O)O[C@H](c2cccc(Cl)c2)[C@H]1c1ccc(Cl)cc1` (single isomer, unassigned) [Example 18, 2-((2S,5R,6R)-6-(3-chlorophenyl)-5-(4-chlorophenyl)-4-((R)-1-cyclohexylethyl)-3-oxomorpholin-2-yl)acetic acid or 2-((2S,5R,6R)-6-(3-Chlorophenyl)-5-(4-chlorophenyl)-4-((S)-1-cyclohexylethyl)-3-oxomorpholin-2-yl)acetic acid] had a half-maximal inhibitory concentration (IC50) of 0.1 µM.
As for `CCc1ccc([C@@H]2[C@@H](c3cccc(Cl)c3)O[C@@H](CC(=O)O)C(=O)N2CC2CC2)cc1` [Example 58, 2-((2S,5R,6R)-6-(3-Chlorophenyl)-4-(cyclopropylmethyl)-5-(4-ethylphenyl)-3-oxomorpholin-2-yl)acetic acid], the figure is 0.9 µM.
Then `CC(C)c1ccc([C@@H]2[C@@H](c3cccc(Cl)c3)O[C@H](CC(=O)O)C(=O)N2CC2CC2)cc1` [Example 66, 2-((2R,5R,6R)-6-(3-Chlorophenyl)-4-(cyclopropylmethyl)-5-(4-isopropylphenyl)-3-oxomorpholin-2-yl)acetic acid], with 13.5 µM.
Then `CS(=O)(=O)c1cc(Cl)cc([C@H]2O[C@H](CC(=O)O)C(=O)N(CC3CC3)[C@@H]2c2ccc(Cl)cc2)c1` (single isomer, unassigned) [Example 110], with 3.7 µM; and `O=C(O)C[C@@H]1O[C@H](c2cccc(Cl)c2)[C@@H](c2ccc(Cl)cc2)N(C2CCC2)C1=O` [Example 12, 2-((2S,5R,6R)-6-(3-Chlorophenyl)-5-(4-chlorophenyl)-4-cyclobutyl-3-oxomorpholin-2-yl)acetic acid], with 0.9 µM.
As to `O=C(O)C[C@H]1O[C@H](c2cccc(Cl)c2)[C@@H](c2cc3ccccc3[nH]2)N(CC2CC2)C1=O` (single isomer, unassigned) [Example 1, 2-((2R,5R,6R)-6-(3-Chlorophenyl)-4-(cyclopropylmethyl)-5-(1H-indol-2-yl)-3-oxomorpholin-2-yl)acetic acid or 2-((2S,5R,6R)-6-(3-Chlorophenyl)-4-(cyclopropylmethyl)-5-(1H-indol-2-yl)-3-oxomorpholin-2-yl)acetic acid], the IC50 was 33.4 µM.
`CCN1C(=O)[C@H](CC(=O)O)O[C@H](c2cccc(Cl)c2)[C@H]1c1ccc(Cl)cc1` [Example 45, 2-((2S,5R,6R)-6-(3-Chlorophenyl)-5-(4-chlorophenyl)-4-ethyl-3-oxomorpholin-2-yl)acetic acid] had an IC50 of 0.8 µM.
Then `C[C@@H](C1CCC1)N1C(=O)[C@@H](CC(=O)O)O[C@H](c2cccc(Cl)c2)[C@H]1c1ccc(Cl)cc1` [Example 22, 2-((2R,5R,6R)-6-(3-Chlorophenyl)-5-(4-chlorophenyl)-4-((S)-1-cyclobutylethyl)-3-oxomorpholin-2-yl)acetic acid], with 0.5 µM; and `COc1cccc([C@H]2OC(CC(=O)O)C(=O)N(CC3CC3)[C@@H]2c2ccc(Cl)cc2)c1` (single isomer, unassigned) [Example 90], with 3.5 µM.
As for `O=C(O)CC1O[C@H](c2cccc(Cl)c2)[C@@H](c2ccc(Br)cc2)N(CC2CC2)C1=O` (single isomer, unassigned) [Example 68], the figure is 14.2 µM; as for `O=C(O)C[C@H]1O[C@H](c2cccc(Cl)c2)[C@@H](c2ccccc2)N(CC2CC2)C1=O` [Example 63, 2-((2R,5R,6R)-6-(3-Chlorophenyl)-4-(cyclopropylmethyl)-3-oxo-5-phenylmorpholin-2-yl)acetic acid], 9.1 µM; as for `O=C(O)CC1O[C@H](c2cccc(Cl)c2)[C@@H](c2ccc(C(F)(F)F)nc2)N(CC2CC2)C1=O` (single isomer, unassigned) [Example 82], 30 µM.
Then `CCN1C(=O)[C@@H](CC(=O)O)O[C@H](c2cccc(Cl)c2)[C@H]1c1ccc(Cl)cc1` [Example 44, 2-((2R,5R,6R)-6-(3-Chlorophenyl)-5-(4-chlorophenyl)-4-ethyl-3-oxomorpholin-2-yl)acetic acid], with 0.9 µM; and `O=C(O)CC1O[C@H](c2cccc(F)c2)[C@@H](c2ccc(Cl)cc2)N(CC2CC2)C1=O` (single isomer, unassigned) [Example 86], with 0.8 µM.
In the case of `CCCN1C(=O)[C@@H](CC(=O)O)O[C@H](c2cccc(Cl)c2)[C@H]1c1ccc(Cl)cc1` [Example 48, 2-((2R,5R,6R)-6-(3-Chlorophenyl)-5-(4-chlorophenyl)-3-oxo-4-propylmorpholin-2-yl)acetic acid], the IC50 is 0.5 µM.
Consider `O=C(O)C[C@@H]1O[C@H](c2cc(Cl)cc(-c3cncnc3)c2)[C@@H](c2ccc(Cl)cc2)N(CC2CC2)C1=O` (single isomer, unassigned) [Example 109], for which the IC50 stood at 2.8 µM.
As for `O=C(O)C[C@@H]1O[C@H](c2cccc(Cl)c2)[C@@H](c2ccc(C(F)(F)F)cc2)N(CC2CC2)C1=O` [Example 57, 2-((2S,5R,6R)-6-(3-Chlorophenyl)-4-(cyclopropylmethyl)-3-oxo-5-(4-(trifluoromethyl)phenyl)morpholin-2-yl)acetic acid], the figure is 0.8 µM.
As for `Cc1cccc([C@H]2OC(CC(=O)O)C(=O)N(CC3CC3)[C@@H]2c2ccc(Cl)cc2)c1` (single isomer, unassigned) [Example 103], the figure is 3.4 µM; as for `O=C(O)C[C@@H]1O[C@H](c2cccc(Cl)c2)[C@@H](c2ccc(F)cc2)N(CC2CC2)C1=O` [Example 56, 2-((2S,5R,6R)-6-(3-Chlorophenyl)-4-(cyclopropylmethyl)-5-(4-fluorophenyl)-3-oxomorpholin-2-yl)acetic acid], 0.7 µM.
As for `C[C@@H](C1CCC1)N1C(=O)[C@H](CC(=O)O)O[C@H](c2cccc(Cl)c2)[C@H]1c1ccc(Cl)cc1` [Example 23, 2-((2S,5R,6R)-6-(3-Chlorophenyl)-5-(4-chlorophenyl)-4-((S)-1-cyclobutylethyl)-3-oxomorpholin-2-yl)acetic acid], the figure is 0.3 µM.
